Counter-ions that a name gives are not always drawn.
Key:
allergic rabbits [1] = assay: Adenosine provocation test after aerosol L-97-1 in allergic rabbits (PC50 of adenosine, lung compliance); format: in vivo, rabbit; conditions: controls without L-97-1, aerosolized adenosine, n=9
allergic rabbits [2] = conditions: baseline BHR, aerosolized histamine, n=5
Description: All animals were anesthetized and intubated. All treatments were administered via an endotracheal tube with an ultrasonic nebulizer that produces aerosol droplets (80% are less than 5 μm). Dynamic compliance (Cdyn) was calculated from tidal volume and the difference in transpulmonary pressure (PTP) at zero flow (V). Total lung resistance (RT) was calculated as the ratio of PTP and V at […] lung volumes; these measurements are made automatically with the Buxco Respiratory Analyzer.

[3] = cited from earlier work

Nc1ncnc2c1ncn2[C@@H]1O[C@H](CO)[C@@H](O)[C@H]1O [adenosine]
PC50 for adenosine (concentration of adenosine to reduce lung compliance by 50%) (allergic rabbits [1]): 3.24 ± 1.79 mg/mL

NCCc1c[nH]cn1 [histamine]
PC50 for histamine (concentration of histamine to reduce lung compliance by 50%) (allergic rabbits [2]): 0.77 ± 0.28 mg/mL

OCc1cc(C(O)CNCCCCCCOCCCCc2ccccc2)ccc1O (stereo not drawn) [salmeterol xinafoate, salmeterol 1-hydroxy-2-napthoic acid salt]
Solubility in water [3]: sparingly soluble in water

Reference: patent publication US20070219223A1, “Compositions and methods for treating respiratory disorders” (Endacea, Inc., priority 2006, published 2007)
